# Laboratory results taken from US7456293B2, “Substituted carboxylic acid derivatives for the treatment of diabetes and lipid disorders, their preparation and use” (SK Holding Co., Ltd, priority 2005, dated 2008).
# Marks after values point to notes of the source that are not given here.
# Assays:
# db/db mice [1] = assay: Efficacy test for blood glucose and plasma lipid lowering (db/db mice); type: in vivo; conditions: male db/db mice, oral; for BG % max reduction d14 / Fatty Acid % max reduction d14 / Insulin % max reduction d14 / TG % max reduction d14: day 14, vs vehicle; for Insulin % max reduction d7: day 7, vs vehicle
# From the text: Mice used in this study were standard model of type II diabetes developed by Jackson Laboratories (Bar Harbor, Me.). Mice (male, 8-wk-old db/db) were housed six per cage in hanging wire bottom cages with standard laboratory conditions. The mice had free access to normal chow (Purina Rodent Chow) and water. At the age of 8-10 weeks, the mice were bled from the tail for glucose matching among the groups (n=6 per group). To test the PPAR-γ effect of the compounds of Examples 1, 2, 3, 4 and 6, mice were then dosed orally with vehicle (CMC) or with two different concentrations (3 or 10 mg/kg/d) of each compound for 7-14 days. Each compound of Examples 1, 2, 3, 4 and 6 was dosed as suspension in 0.5% CMC+0.2% Tween 80 in sterile water. Fresh suspension was prepared for 8 days dosing and kept in a refrigerator. The suspension was administered orally by gavage daily in the morning. The control group received vehicle (dose 10 mL/kg). Blood glucose concentrations (in fed state) were monitored at basal and 3 h post dose on day 14 either by putting a drop of blood from tails on a glucose strip for analysis by a glucometer or using a 10 μL plasma sample in a YSI (Yellow Spring Instruments, OH) analyzer. […] The results are expressed in Table 2 as % maximal reduction that is achieved relative to vehicle treated control group. Animals having more than 300 mg/dL of blood glucose were used for testing. Statistical significance (* P<0.05; ** P<0.01) is given versus the appropriate sample in vehicle treated animals.
# hPPAR-γ = molecular target: T1, hPPAR-γ (Homo sapiens, UniProt P37231); assay: In vitro hPPAR-γ transactivation (GAL4 fusion, SPRAT cells, luciferase); type: cell-based
# T1 construct: expressed in transfected cells
# T1 sequence (P37231 238-503 limits assumed): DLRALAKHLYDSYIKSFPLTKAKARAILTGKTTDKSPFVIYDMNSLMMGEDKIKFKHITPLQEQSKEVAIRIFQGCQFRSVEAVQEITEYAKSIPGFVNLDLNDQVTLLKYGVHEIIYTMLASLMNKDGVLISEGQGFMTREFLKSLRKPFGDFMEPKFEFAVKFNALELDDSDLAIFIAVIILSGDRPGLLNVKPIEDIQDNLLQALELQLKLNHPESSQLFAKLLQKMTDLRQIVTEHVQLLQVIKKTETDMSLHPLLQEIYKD
# [2] = tested on: human ApoA1 transgenic mice; assay: Changes in plasma ApoA1, HDL cholesterol and TG levels (human ApoA1 transgenic mice); type: in vivo; conditions: for ApoA1 % increase / HDL Cholesterol % increase / TG % decrease: oral, 8 days
# Method: Homozygous human ApoA1 transgenic mouse strains (C57BL/6-TgN1Rub) were purchased from Jackson Laboratories (Bar Harbor, Me.). The mice were grouped by six and housed in hanging wire bottom cages with standard laboratory conditions. The mice had free access to normal chow (Purina Rodent Chow) and water. The grouped mice were then dosed orally with vehicle (CMC) or with different concentrations of the compound of Example 1 (3, 10 or 30 mg/kg/d) for 8 days. Compounds were dosed as suspension in 0.5% CMC+0.2% Tween 80 in sterile water. Fresh suspension was prepared for 8 days dosing and kept in a refrigerator. The suspension was administered orally by gavage daily in the morning. The control group received vehicle (dose 10 mL/kg). Blood samples were collected by cardiac puncture, centrifuged and analyzed for ApoA1, HDL cholesterol, and triglyceride.
# hPPAR-δ = molecular target: T2, hPPAR-δ (Homo sapiens, UniProt Q03181); assay: In vitro hPPAR-δ transactivation (GAL4 fusion, SPRAT cells, luciferase); type: cell-based; conditions: for EC50: 6 hours, read-out: PPAR-δ EC50; for PPAR-δ % Max: relative to TTA = 100
# T2 construct: expressed in transfected cells
# T2 sequence (Q03181 211-439 limits assumed): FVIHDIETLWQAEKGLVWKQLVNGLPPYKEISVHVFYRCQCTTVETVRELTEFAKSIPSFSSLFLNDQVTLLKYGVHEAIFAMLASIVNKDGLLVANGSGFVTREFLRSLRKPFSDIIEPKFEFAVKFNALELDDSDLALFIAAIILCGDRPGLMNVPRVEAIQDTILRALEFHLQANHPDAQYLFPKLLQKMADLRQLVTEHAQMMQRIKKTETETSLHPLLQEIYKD
# hPPAR-α = molecular target: T3, hPPAR-α (Homo sapiens, UniProt Q07869); assay: In vitro hPPAR-α transactivation (GAL4 fusion, SPRAT cells, luciferase); type: cell-based
# T3 construct: expressed in transfected cells
# T3 sequence (Q07869 239-466 limits assumed): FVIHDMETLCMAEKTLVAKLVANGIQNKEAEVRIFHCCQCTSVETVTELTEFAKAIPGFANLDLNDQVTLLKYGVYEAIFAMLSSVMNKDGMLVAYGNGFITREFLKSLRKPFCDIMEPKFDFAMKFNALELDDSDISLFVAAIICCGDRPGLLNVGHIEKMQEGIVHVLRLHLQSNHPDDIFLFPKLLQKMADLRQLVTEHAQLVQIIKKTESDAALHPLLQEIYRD
# 3T3-L1 adipocytes = assay: Insulin-stimulated glucose uptake (2-deoxy-D-glucose) in differentiated 3T3-L1 adipocytes; type: cell-based
# From the text: Adipocyte differentiation was then induced using standard protocol. […] The maintenance medium was changed every 3 days until the cells were utilized for experimentation. […] In each instance, the medium was changed twice a day. […]
# db/db mice [3] = assay: Oral glucose tolerance test (OGTT) in db/db mice; type: in vivo
# Method: OGTT was performed in db/db mice after dosing of either 3 or 10 mg/kg of the compound of Example 1 for 9 days. The animals were dosed with 10% glucose in water in a volume of 10 mL/kg. Blood samples were taken at 0, 30, 60 and 120 min post dose.
# [4] = tested on: high cholesterol-fed rats; assay: Changes in plasma lipid parameters (high cholesterol-fed rats); type: in vivo; conditions: 10 mg/kg
# Method: Blood was collected and analyzed for non-fasted total cholesterol and free fatty acid levels. The results are calculated as the percent reduction relative to vehicle control.
# [5] = oral, 4 days, vs vehicle control
smiles,measurement,setting,value
"CCOC(Cc1ccc(OCCn2c(C(F)(F)C(F)(F)F)nc3ccccc32)cc1)C(=O)O (stereo not drawn) [Example 2, 2-ethoxy-3-(4-{2-[2-(pentafluoroethyl)-1H-benzimidazol-1-yl]ethoxy}phenyl)propanoic acid]",BG % max reduction d14,db/db mice [1]; 3 mg/kg,57** %
same,Fatty Acid % max reduction d14,db/db mice [1]; 3 mg/kg,45** %
same,Insulin % max reduction d14,db/db mice [1]; 3 mg/kg,59** (d14) %
same,TG % max reduction d14,db/db mice [1]; 3 mg/kg,50** %
same,BG % max reduction d14,db/db mice [1]; 10 mg/kg,75** %
same,Fatty Acid % max reduction d14,db/db mice [1]; 10 mg/kg,71** %
same,Insulin % max reduction d14,db/db mice [1]; 10 mg/kg,75** (d14) %
same,TG % max reduction d14,db/db mice [1]; 10 mg/kg,70** %
"CCOC(Cc1ccc(OCCn2c(C(F)(F)F)nc3ccccc32)cc1)C(=O)O (racemic) [Example 1, 2-ethoxy-3-(4-{2-[2-(trifluoromethyl)-1H-benzimidazol-1-yl]ethoxy}phenyl)propanoic acid]",EC50,"hPPAR-γ; 6 hours, read-out: PPAR-γ EC50",0.04 µM
same,PPAR-γ % Max,hPPAR-γ; relative to Rosiglitazone = 100,62%
same,ApoA1 % increase,[2]; 3 mg/kg,52%
same,HDL Cholesterol % increase,[2]; 3 mg/kg,47* %
same,TG % decrease,[2]; 3 mg/kg,52* %
same,ApoA1 % increase,[2]; 10 mg/kg,137%
same,HDL Cholesterol % increase,[2]; 10 mg/kg,73** %
same,TG % decrease,[2]; 10 mg/kg,56** %
same,ApoA1 % increase,[2]; 30 mg/kg,186%
same,HDL Cholesterol % increase,[2]; 30 mg/kg,51** %
same,TG % decrease,[2]; 30 mg/kg,67** %
same,HDL-cholesterol (in words),[2]; through increase in human ApoA1 levels,greatly increased HDL-cholesterol
same,EC50,hPPAR-δ,50 µM
same,PPAR-δ % Max,hPPAR-δ,68%
same,EC50,"hPPAR-α; 6 hours, read-out: PPAR-α EC50",17.2 µM
same,PPAR-α % Max,hPPAR-α; relative to Reference (α) = 100,44%
same,glucose transport activity,"3T3-L1 adipocytes; 1 μM compound in the presence of 100 nM insulin, 48 h, FIG. 1",significantly increased
same,glucose transport,"3T3-L1 adipocytes; separate treatment: 1 μM compound alone or 100 nM insulin alone, 48 h, 3T3-L1 adipocytes",increase in glucose transport
same,"AUC for blood glucose, reduction vs vehicle control",db/db mice [3]; 3 mg/kg for 9 days,49%
same,"AUC for blood glucose, reduction vs vehicle control",db/db mice [3]; 10 mg/kg for 9 days,48%
same,plasma total cholesterol and free fatty acid levels (in words),[4],significantly reduced
same,Free Fatty Acid % reduction,[4]; [5],68** %
same,Total Cholesterol % reduction,[4]; [5],69** %
same,Insulin % max reduction d7,db/db mice [1]; 3 mg/kg,85** (d7) %
same,BG % max reduction d14,db/db mice [1]; 3 mg/kg,69** %
same,Fatty Acid % max reduction d14,db/db mice [1]; 3 mg/kg,47** %
same,TG % max reduction d14,db/db mice [1]; 3 mg/kg,52** %
same,Insulin % max reduction d7,db/db mice [1]; 10 mg/kg,87** (d7) %
same,BG % max reduction d14,db/db mice [1]; 10 mg/kg,73** %
same,Fatty Acid % max reduction d14,db/db mice [1]; 10 mg/kg,72** %
same,TG % max reduction d14,db/db mice [1]; 10 mg/kg,55** %
"CCCCCCCCCCCCCCSCC(=O)O [TTA (δ), reference compound]",EC50,hPPAR-δ,38 µM
same,PPAR-δ % Max,hPPAR-δ,100%
"CCOC(Cc1ccc(OCCn2c(C(F)(F)F)nc3cc(C(F)(F)F)ccc32)cc1)C(=O)O (stereo not drawn) [Example 3, 3-(4-{2-[2,5-bis(trifluoromethyl)-1H-benzimidazol-1-yl]ethoxy}phenyl)-2-ethoxypropanoic acid]",BG % max reduction d14,db/db mice [1]; 3 mg/kg,77** %
same,Fatty Acid % max reduction d14,db/db mice [1]; 3 mg/kg,49** %
same,Insulin % max reduction d14,db/db mice [1]; 3 mg/kg,76** (d14) %
same,TG % max reduction d14,db/db mice [1]; 3 mg/kg,61** %
same,BG % max reduction d14,db/db mice [1]; 10 mg/kg,77** %
same,Fatty Acid % max reduction d14,db/db mice [1]; 10 mg/kg,76** %
same,Insulin % max reduction d14,db/db mice [1]; 10 mg/kg,79** (d14) %
same,TG % max reduction d14,db/db mice [1]; 10 mg/kg,77** %
"CCOC(Cc1ccc(OCCn2c(C(F)(F)F)nc3cc(F)ccc32)cc1)C(=O)O (stereo not drawn) [Example 4, 3-(4-{2-[5-fluoro-2-(trifluoromethyl)-1H-benzimidazol-1-yl]ethoxy}phenyl)-2-ethoxypropanoic acid]",BG % max reduction d14,db/db mice [1]; 3 mg/kg,68** %
same,Fatty Acid % max reduction d14,db/db mice [1]; 3 mg/kg,25** %
same,Insulin % max reduction d14,db/db mice [1]; 3 mg/kg,79** (d14) %
same,TG % max reduction d14,db/db mice [1]; 3 mg/kg,64** %
same,BG % max reduction d14,db/db mice [1]; 10 mg/kg,73** %
same,Fatty Acid % max reduction d14,db/db mice [1]; 10 mg/kg,27** %
same,Insulin % max reduction d14,db/db mice [1]; 10 mg/kg,79** (d14) %
same,TG % max reduction d14,db/db mice [1]; 10 mg/kg,58** %
"CCO[C@@H](Cc1ccc(OCCn2c(C(F)(F)F)nc3ccccc32)cc1)C(=O)O [Example 6, (2S)-3-{4-[2-(2-trifluoromethyl-benzoimidazol-1-yl)-ethoxy]-phenyl}-2-ethoxy-propionic acid]","insulin-stimulated glucose uptake, enantio-dependency","3T3-L1 adipocytes; each enantiomer vs racemate, FIG. 2",statistically significant difference (P<0.01) over racemate
same,Insulin % max reduction d7,db/db mice [1]; 3 mg/kg,87** (d7) %
same,BG % max reduction d14,db/db mice [1]; 3 mg/kg,53** %
same,Fatty Acid % max reduction d14,db/db mice [1]; 3 mg/kg,54** %
same,TG % max reduction d14,db/db mice [1]; 3 mg/kg,62** %
same,Insulin % max reduction d7,db/db mice [1]; 10 mg/kg,86** (d7) %
same,BG % max reduction d14,db/db mice [1]; 10 mg/kg,73** %
same,Fatty Acid % max reduction d14,db/db mice [1]; 10 mg/kg,60** %
same,TG % max reduction d14,db/db mice [1]; 10 mg/kg,66** %
